Results: patent US10722496B2, “2-iminobiotin for use in the treatment of brain cell injury” (Neurophyxia B.V., priority 2015, dated 2020)

Tests used:
IMR-32 cell cultures [1] = test: ROS fluorometric assay after hypoxia under mild hypothermia; assay type: cell-based, human
Description: (§1) In-vitro hypoxia was induced for 7 hours using IMR-32 cell cultures. After the hypoxic insult, cultures were subjected to 25 hours of mild hypothermia (33.5° C.) and were incubated with or without 2-IB (10, 30, 50, 100 and 300 ng/ml). Cell morphology was evaluated by brightfield microscopy and cell damage was analyzed by LDH assays. Production of reactive oxygen species (ROS) was measured using fluorometric assays. Western blotting for PARP and phosphorylated as well as unphosphorylated akt and erkl/2 was performed.

akt = test: Western blotting, akt phosphorylation; assay type: cell-based, human
Description: (§2) In vitro hypoxia was induced in the cell cultures by using our recently described system with minor modifications (Huang et al., 2013b; Weber et al., 2015; Zitta et al., 2010). Enzyme stock solutions (100×) of catalase and glucose oxidase (both from Sigma-Aldrich) were prepared in cell culture medium (DMEM/F12, 1% FCS; final concentration: 120 U/ml and 2 U/ml respectively; Sigma-Aldrich) leading to a decrease of partial pressure of oxygen (pO2) below 10 mmHg within 5 minutes. Hypoxic conditions were confirmed by using a tissue oxygen pressure monitor (LICOX® CMP Oxygen Catheter; Integra, Plainsboro, USA). After 7 hours of hypoxia, the cells were washed twice with PBS (PAA) and fresh normoxic medium supplemented with solvent (citrate buffer 1%) or 2-IB (10, 30, 50, 100 and 300 ng/mL) was added to the cells. […]
(§3) Protein extraction was performed using RIPA buffer containing 150 mM sodium chloride, 1% NP-40, 1% sodium deoxycholate, 0.1% sodium dodecyl sulfate (SDS) and 50 mM Tris-HCl buffer (pH 7.6; all from Sigma-Aldrich) or alternatively M-PER buffer (Mammalian Protein Extraction Reagent; Pierce, Ill., USA). Protein concentrations were determined with Roti®-Quant assays (Carl Roth) and samples were stored at −20° C. until use. […] Images were taken and densitometrically analyzed with the software ImageJ (v1.41o, NIH).

IMR-32 cells [2] = test: LDH cytotoxicity assay, hypoxia-induced cell damage; assay type: cell-based, human; settings: 10 ng/ml 2-IB, 17 hours after hypoxia
IMR-32 cells [3] = test: Nitrate/nitrite Griess assay in culture media; assay type: cell-based, human; settings: data not shown
Description: (§4) In vitro hypoxia was induced in the cell cultures by using our recently described system with minor modifications (Huang et al., 2013b; Weber et al., 2015; Zitta et al., 2010). Enzyme stock solutions (100×) of catalase and glucose oxidase (both from Sigma-Aldrich) were prepared in cell culture medium (DMEM/F12, 1% FCS; final concentration: 120 U/ml and 2 U/ml respectively; Sigma-Aldrich) leading to a decrease of partial pressure of oxygen (pO2) below 10 mmHg within 5 minutes. Hypoxic conditions were confirmed by using a tissue oxygen pressure monitor (LICOX® CMP Oxygen Catheter; Integra, Plainsboro, USA). After 7 hours of hypoxia, the cells were washed twice with PBS (PAA) and fresh normoxic medium supplemented with solvent (citrate buffer 1%) or 2-IB (10, 30, 50, 100 and 300 ng/mL) was added to the cells. Investigations of cell damage, metabolic activity, ROS, hydrogen peroxide, nitrite/nitrate production, erkl/2, akt and stat5 phosphorylation as well as cell stress protein expression were performed with cell culture media or cell protein (FIG. 1).
Nitrate and nitrite concentrations were evaluated in culture media using a Griess colorimetric assay kit (Sigma-Aldrich) according to the manufacturer's instructions. Absorbance at 540 nm was measured in samples and standards using an ELISA reader (Tecan, Crailsheim, Germany).

[4] = system: piglet model of perinatal global hypoxia-ischemia (HI); settings: Peeters-Scholte et al., 2002; cited from earlier work
[5] = Phase I clinical study pharmacokinetics, pulse i.v. infusion in healthy male subjects; assay type: in vivo, human; settings: for mean AUC 4 hours: 6 pulses of 0.6 mg/kg in a 24-hour period
Description: The pharmacokinetics of 2-IB have been investigated in a Phase I clinical study in which the safety and tolerability of single and multiple doses of 2-IB pulse i.v. infusion in healthy male subjects were investigated. The study was a randomized, double-blind, placebo-controlled, dose escalation study with 3 groups of 6 healthy male subjects receiving a single i.v. infusion or pulsed i.v. infusions of 2-IB or placebo in 3 periods. Treatments were randomized such that each subject received 2 out of 3 foreseen dose levels of 2-IB and once placebo.

erkl/2 = test: Western blotting, erkl/2 phosphorylation; assay type: cell-based, human; settings: 30 ng/ml 2-IB
Description: as §2, §3

IMR-32 cells [6] = test: LDH cytotoxicity assay, hypoxia-induced cell damage; assay type: cell-based, human
Description: as §4
The release of LDH from cultured cells into the medium was quantified by using a colorimetric cytotoxicity detection kit (Roche, Mannheim, Germany). Samples were prepared based on the manufacturer's protocol. Briefly, culture media were collected 24 hours after hypoxia and stored at −20° C. For evaluation of total LDH, cells were lysed with 2% TRITON® X-100 (Carl Roth, Karlsruhe, Germany) for 15 minutes at 37° C. LDH activity of the samples was measured in 96-well plates at 490 nm using an ELISA reader (Tecan, Crailsheim, Austria) in combination with the Magellan software v1.1.

PARP, akt and erkl/2 = test: Western blotting for PARP, akt and erkl/2 under mild hypothermia; assay type: cell-based, human; settings: post-hypoxic addition (30 ng/ml)
Description: as §1

IMR-32 cell cultures [7] = test: LDH assay after hypoxia under mild hypothermia; assay type: cell-based, human; settings: 30 ng/ml 2-IB post-hypoxic, 25 hours mild hypothermia (33.5° C.)
Description: as §1

## N=C1N[C@H]2[C@H](CS[C@H]2CCCCC(=O)O)N1 [2-IB, 2-iminobiotin]
IMR-32 cell cultures [1]; 30 ng/ml 2-IB post-hypoxic, mild hypothermia (33.5° C.)
  hypoxia-induced ROS production: attenuated the hypoxia-induced ROS production under hypothermic conditions
IMR-32 cell cultures [1]; higher concentrations of 2-IB (above 30 ng/ml), mild hypothermia
  hypoxia-induced ROS generation: less effective in reducing hypoxia-induced ROS generation
akt; hypoxia plus 30 ng/ml 2-IB
  phospho akt/akt: 0.60±0.33
akt; normoxia plus 30 ng/ml 2-IB
  phospho akt/akt: 0.78±0.54
IMR-32 cells [2]; hypoxia
  LDH/total LDH: 0.15±0.03
IMR-32 cells [2]; normoxia
  LDH/total LDH: 0.09±0.02
IMR-32 cells [3]
  nitrate and nitrite concentrations in culture media: neither nitrate nor nitrite concentrations were influenced by hypoxia or by 2-IB
[4]
  neurological damage: reduces the amount of neurological damage
[5]; 0.6 mg/kg pulses, during the 24-hour dosing period
  mean AUC 0-4 hours on average: about 1305 ng·h/mL
[5]; after the first infusion
  mean AUC 4 hours: 1170 ng·h/mL
[5]; after the last infusion
  mean AUC 4 hours: 1441 ng·h/mL
erkl/2
  phosphorylation of erkl/2: did not influence
IMR-32 cells [6]; 30 ng/ml 2-IB, hypoxia
  LDH/total LDH: 0.13±0.02
IMR-32 cells [6]; 30 ng/ml 2-IB, normoxia
  LDH/total LDH: 0.11±0.03
IMR-32 cells [6]; 50 ng/ml 2-IB, hypoxia
  LDH/total LDH: 0.14±0.04
IMR-32 cells [6]; 50 ng/ml 2-IB, normoxia
  LDH/total LDH: 0.14±0.04
IMR-32 cells [6]; 100 ng/ml 2-IB, hypoxia
  LDH/total LDH: 0.15±0.03
IMR-32 cells [6]; 100 ng/ml 2-IB, normoxia
  LDH/total LDH: 0.10±0.02
IMR-32 cells [6]; 300 ng/ml 2-IB, hypoxia
  LDH/total LDH: 0.20±0.06
IMR-32 cells [6]; 300 ng/ml 2-IB, normoxia
  LDH/total LDH: 0.10±0.02
IMR-32 cells [6]; 10-300 ng/ml tested, P<0.05 vs. control
  reduction of hypoxia-induced cell damage, most effective concentrations: 30 and 50 ng/ml 2-IB were the most effective concentrations
PARP, akt and erkl/2
  cleavage of PARP, akt and erkl/2 phosphorylation: did not influence cleavage or phosphorylation of the mentioned molecules
IMR-32 cell cultures [7]
  hypoxia-induced LDH release: reduced the hypoxia-induced LDH release even under hypothermia
